± gives the standard deviation of the averaged measurements.
Key:
Experiment in all cases: level (log10 ratio to DMSO vehicle control); higher = higher biomarker level / cell amount than vehicle control
Conditions in all cases: in DMSO
[1] = compound: C=C(C)C(=O)OCC(F)(F)C(F)(F)C(F)(F)C(F)(F)C(F)(F)C(F)(F)C(F)(F)F
Experimental: (§1)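 BioMAP Diversity Plus panel of 12 human primary cell co-culture systems (3C, 4H, LPS, SAg, BT, BF4T, BE3C, CASM3C, HDF3CGF, KF3CT, MyoF, Mphg). Compounds were added 1 h before stimulation and left for 24 h (MyoF 48 h; BT 72 h for soluble read-outs or 6 d for IgG). Biomarkers were read by ELISA, cytotoxicity by SRB, PBMC viability and proliferation by Alamar Blue. Each well value was divided by the mean of 8 DMSO control wells on the same plate and log10 transformed; duplicate blinded samples were tested at 4 concentrations.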

[2] = compound: CC(C)(C)C(=O)CC(=O)C(F)(F)C(F)(F)C(F)(F)F [(Heptafluorobutanoyl)pivaloylmethane]
Experimental: as §1

Perfluorooctanamide = compound: NC(=O)C(F)(F)C(F)(F)C(F)(F)C(F)(F)C(F)(F)C(F)(F)C(F)(F)F [Perfluorooctanamide]
Experimental: as §1

Hexafluoroglutaric acid = compound: O=C(O)C(F)(F)C(F)(F)C(F)(F)C(=O)O [Hexafluoroglutaric acid]
Experimental: as §1

[3] = compound: O=C(O)C(F)(F)OC(F)(F)C(F)(F)OC(F)(F)C(F)(F)C(F)(F)C(F)(F)F [Perfluoro-3,6-dioxadecanoic acid]
Experimental: as §1

[4] = compound: O=S(=O)(O)C(F)(F)C(F)(F)C(F)(F)C(F)(F)C(F)(F)C(F)(F)C(F)(F)C(F)(F)F [Perfluorooctanesulfonic acid]
Experimental: as §1

[5] = compound: O=S(=O)(O)C(F)(F)C(F)(F)C(F)(F)C(F)(F)C(F)(F)C(F)(F)C(F)(F)C(F)(F)F [Potassium perfluorooctanesulfonate]
Experimental: as §1

Test System	level (log10) ([1]; 6700 nM)	level (log10) ([1]; 20000 nM)	level (log10) ([2]; 6700 nM)	level (log10) ([2]; 20000 nM)	level (log10) ([2]; 60000 nM)	level (log10) (Perfluorooctanamide; 6700 nM)	level (log10) (Perfluorooctanamide; 20000 nM)	level (log10) (Perfluorooctanamide; 60000 nM)	level (log10) (Hexafluoroglutaric acid; 6700 nM)	level (log10) (Hexafluoroglutaric acid; 20000 nM)	level (log10) (Hexafluoroglutaric acid; 60000 nM)	level (log10) ([3]; 6700 nM)	level (log10) ([3]; 20000 nM)	level (log10) ([3]; 60000 nM)	level (log10) ([4]; 6700 nM)	level (log10) ([4]; 20000 nM)	level (log10) ([4]; 60000 nM)	level (log10) ([5]; 6700 nM)	level (log10) ([5]; 20000 nM)	level (log10) ([5]; 60000 nM)
BT:Secreted IgG	0.021 ± 0.055	0.024 ± 0.013	-0.0115 ± 0.016	-0.009 ± 0.017	-0.023 ± 0.02	0.0065 ± 0.0064	0.005 ± 0.023	0.0215 ± 0.025	-0.026 ± 0.04	0.055 ± 0.013	0.019 ± 0.048	0.0295 ± 0.012	0.0235 ± 0.033	-0.0365 ± 0.0064	-0.0005 ± 0.0078	0.0025 ± 0.021	-0.0315 ± 0.016	0.0115 ± 0.018	0.018 ± 0.0071	-0.0055 ± 0.005
SAg:CD38	-0.0195 ± 0.00071	0.011 ± 0.0071	0.0075 ± 0.097	0.017 ± 0.065	-0.0125 ± 0.00071	0.0005 ± 0.005	0.0085 ± 0.028	0.003 ± 0.018	-0.002 ± 0.0071	-0.0075 ± 0.00071	0.0075 ± 0.021	-0.0115 ± 0.0021	-0.021 ± 0.0057	-0.061 ± 0.069	-0.01 ± 0.021	-0.0075 ± 0.00071	-0.037 ± 0.018	-0.0085 ± 0.0092	-0.01 ± 0.013	-0.023 ± 0.02
BE3C:CXCL8/IL-8	0.011 ± 0.024	0.0275 ± 0.015	-0.0095 ± 0.018	-0.015 ± 0.021	-0.017 ± 0.076	0.011 ± 0.0028	0.011 ± 0.0071	-0.0045 ± 0.005	-0.011 ± 0.014	-0.0165 ± 0.0064	-0.011 ± 0.02	0.0135 ± 0.016	0.0065 ± 0.019	-0.0965 ± 0.0092	-0.0875 ± 0.0035	-0.136 ± 0.0021	-0.348 ± 0.25	-0.053 ± 0.065	-0.112 ± 0.035	-0.082 ± 0.024
SAg:PBMC Cytotoxicity	0.0115 ± 0.005	0.0265 ± 0.046	-0.0265 ± 0.013	-0.007 ± 0.017	-0.124 ± 0.15	-0.027 ± 0.038	-0.0135 ± 0.025	0.024 ± 0.034	0.0035 ± 0.0078	0.014 ± 0.0042	-0.005 ± 0.058	0.03 ± 0.0085	0.0395 ± 0.018	0.0705 ± 0.00071	0.0135 ± 0.0092	0.021 ± 0.013	0.0185 ± 0.013	0.0165 ± 0.0092	0.012 ± 0.013	0.0315 ± 0.029

Source: the supplement of paper PMC10331698
